Values after ≈ are worked out from the molar mass of the structure shown. Active and inactive are the calls of the source. No cut-off for these calls is given here.
Assays:
[1] = Drug uptake in db/db mouse white adipose at 30 mg/kg, po measured at 1 to 24 hrs; format: ADME, organism-based, White adipose tissue; conditions: in vivo
Salmonella typhimurium = test: Genotoxicity in Salmonella typhimurium by Ames test; format: toxicity, organism-based; conditions: salmonella enterica subsp. enterica serovar typhimurium
[2] = Plasma concentration in db/db mouse at 30 mg/kg, po measured at 1 to 24 hrs; format: ADME, organism-based; conditions: in vivo
[3] = Drug uptake in db/db mouse brown adipose at 30 mg/kg, po measured at 1 to 24 hrs; format: ADME, organism-based, Brown adipose tissue; conditions: in vivo
Mus musculus [4] = test: Antidiabetic activity in obese insulin-resistant po dosed db/db mouse assessed as reduction in blood glucose AUC administered qd for 7 days by oGTT; format: functional, organism-based
Mus musculus [5] = test: Unbound Cmax in db/db mouse at 30 mg/kg, po qd after 1 to 24 hrs; format: ADME, organism-based; conditions: in vivo
[6] = Total Cmax in db/db mouse at 30 mg/kg, po qd after 1 to 24 hrs; format: ADME, organism-based; design: dose 30 mg/kg, route oral; conditions: in vivo
[7] = target: Voltage-gated inwardly rectifying potassium channel KCNH2 (Homo sapiens, UniProt Q12809); test: Inhibition of human ERG
Mus musculus [8] = test: In vivo induction of circadian clock modulation in db/db mouse at 30 mg/kg, po; format: functional, organism-based
Mus musculus [9] = test: Hypoglycemic activity in obese insulin-resistant db/db mouse assessed as decrease in fasting blood glucose level at 100 mg/kg, po qd dosed for 7 days relative to control; format: functional; design: scale not given: the % may be the effect or the level left
[10] = Drug uptake in db/db mouse liver at 30 mg/kg, po measured at 1 to 24 hrs; format: ADME, organism-based; conditions: in vivo
[11] = Kinetic solubility in simulated gastric fluid; format: physicochemical; conditions: read-out: Kinetic_solubility
[12] = MRT in db/db mouse at 30 mg/kg, po qd after 1 to 24 hrs; format: ADME, organism-based; conditions: in vivo
[13] = Drug uptake in db/db mouse skeletal muscle at 30 mg/kg, po measured at 1 to 24 hrs; format: ADME, organism-based, Skeletal muscle tissue; conditions: in vivo
[14] = Half life in db/db mouse at 30 mg/kg, po qd; format: ADME, organism-based; conditions: in vivo
Mus musculus [15] = test: Antidiabetic activity in obese insulin-resistant db/db mouse assessed as reduction in blood glucose AUC at 100 mg/kg, po qd dosed for 7 days by oGTT relative to control; format: functional; design: scale not given: the % may be the effect or the level left

Chain of Voltage-gated inwardly rectifying potassium channel KCNH2 (Q12809 whole entry): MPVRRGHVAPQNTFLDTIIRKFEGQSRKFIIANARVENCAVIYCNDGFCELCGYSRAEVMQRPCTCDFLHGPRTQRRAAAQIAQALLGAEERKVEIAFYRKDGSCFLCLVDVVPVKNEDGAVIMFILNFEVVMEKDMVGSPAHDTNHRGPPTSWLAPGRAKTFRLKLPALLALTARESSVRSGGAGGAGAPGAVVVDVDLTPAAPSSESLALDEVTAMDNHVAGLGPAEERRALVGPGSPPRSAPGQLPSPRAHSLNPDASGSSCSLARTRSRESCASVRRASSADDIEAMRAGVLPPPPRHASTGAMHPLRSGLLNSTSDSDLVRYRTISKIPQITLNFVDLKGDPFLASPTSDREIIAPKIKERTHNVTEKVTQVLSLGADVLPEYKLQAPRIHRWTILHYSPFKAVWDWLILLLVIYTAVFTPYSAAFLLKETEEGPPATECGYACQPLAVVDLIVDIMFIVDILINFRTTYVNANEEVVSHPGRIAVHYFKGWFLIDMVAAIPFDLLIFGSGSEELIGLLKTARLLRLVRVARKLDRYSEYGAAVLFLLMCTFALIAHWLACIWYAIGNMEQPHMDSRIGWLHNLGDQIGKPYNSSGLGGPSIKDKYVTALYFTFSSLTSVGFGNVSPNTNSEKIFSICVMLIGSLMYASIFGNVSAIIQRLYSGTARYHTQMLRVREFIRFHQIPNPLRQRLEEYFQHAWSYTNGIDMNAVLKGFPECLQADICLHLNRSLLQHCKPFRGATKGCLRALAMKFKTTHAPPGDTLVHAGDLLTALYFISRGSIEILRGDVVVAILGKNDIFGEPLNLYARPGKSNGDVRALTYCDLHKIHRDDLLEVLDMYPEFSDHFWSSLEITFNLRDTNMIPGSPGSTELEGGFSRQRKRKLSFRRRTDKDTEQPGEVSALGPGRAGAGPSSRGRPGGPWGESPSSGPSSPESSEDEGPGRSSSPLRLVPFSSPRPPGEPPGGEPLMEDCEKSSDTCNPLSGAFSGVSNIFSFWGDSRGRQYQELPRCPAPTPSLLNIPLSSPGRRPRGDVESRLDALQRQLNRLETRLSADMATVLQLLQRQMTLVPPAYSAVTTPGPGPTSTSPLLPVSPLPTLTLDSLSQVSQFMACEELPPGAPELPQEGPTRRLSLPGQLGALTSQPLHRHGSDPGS

Drug uptake [1]: Active | Drug uptake [2]: Active | Drug uptake [3]: Active | fCmax (Mus musculus [5]): 0.056 µM | Cmax [6]: 1090 nM | Drug uptake [10]: Active | solubility kinetic [11]: 142 µM (≈ 48.9 µg/mL) | MRT [12]: 6.76 h | Drug uptake [13]: Active | half-life [14]: 2.83 h
SMILES: O=C1NCCN1CC(O)Cn1c2ccc(F)cc2c2cc(F)ccc21 (stereo unspecified)
Activity (Salmonella typhimurium): Non-Toxic | Activity (Mus musculus [4]): Dose-dependent effect | inhibition (INH) [7]: Not Active | Activity (Mus musculus [8]): Active | Activity (Mus musculus [9]): 14% | Activity (Mus musculus [15]): 39%

Source: ChEMBL document CHEMBL4184118, “Carbazole-containing amides and ureas: Discovery of cryptochrome modulators as antihyperglycemic agents” (Bioorg Med Chem Lett, 2018)
